{"source": "paper PMC4805082", "about": "“Seizure control by decanoic acid through direct AMPA receptor inhibition” (Brain, 2015)", "key": {"[1]": {"system": "epileptiform activity (burst discharges) in hippocampal slices induced by pentylenetetrazol", "test": "In vitro seizure model, pentylenetetrazol-induced epileptiform activity in hippocampal slices", "assay_type": "cell-based, rat", "conditions": "pentylenetetrazol 2 mM, K+ 6 mM", "method": "(§1) Male Sprague-Dawley rats (postnatal Days 19–30) were sacrificed using an overdose of isoflurane or pentobarbitone (500 mg/kg). After decapitation the brain was rapidly removed, the hippocampus or entorhinal cortex-hippocampus slices was dissected from the brain and […] thick transverse slices were prepared on a VT1200S vibratome (Leica) or Vibratome (Vibratome® 1500 sectioning system, Intracell). The slicing was performed in ice-cold sucrose-based solution containing (in mM): 75 sucrose, 87 NaCl, 22 glucose, 2.5 KCl, 7 MgCl2, 1.25 NaH2PO4, 0.5 CaCl2 and 25 NaHCO3, pH 7.4, 315–330 mOsm equilibrated with 95% O2 plus 5% CO2. The slices were then stored in a continuously oxygenated humidified interface holding chamber containing oxygenated artificial CSF (in mM): 120 NaCl, 22 glucose, 2.5 KCl, 1.3 MgSO4, 1 NaH2PO4, 25 NaHCO3 and 2.5 CaCl2, pH 7.4 296 mOsm, where they recovered for at least 1 h before use.\n(§2) During the experiment, slices were transferred from the interface chamber into a submerged recording chamber, designed to optimize wash-in and wash-out of drugs, and continuously perfused using gravity feed at 3–6 ml/min with prewarmed (36°C) oxygenated artificial CSF (95% O2, 5% CO2). Field potentials were recorded with a glass microelectrode (1–2 MΩ) filled with artificial CSF solution placed in stratum radiatum of CA1 and were filtered at 1 kHz and digitized at 2 kHz (using an npi EXT-02F extracellular amplifier recorded with WinEDR software). In the pentylenetetrazol model, the epileptiform (paroxysmal) activity was induced by application of pentylenetetrazol (2 mM) to the perfusate and [K^+] was increased (to 6 mM); in low-Mg^2+ model, the epileptiform activity was elicited by using Mg^2+-free artificial CSF. Once the frequency of the paroxysmal activity was stable for at least 10 min, compounds were applied to the perfusate for the following 40 min, and washed out for a remaining 20 min. The anticonvulsant effects were evaluated by measuring the change in the frequency of the discharges at minute intervals. The discharge frequency was then averaged every 5 min during the experiment and normalized to baseline. The compounds applied in this study included: 1% dimethyl sulphoxide (DMSO), acetone (10 mM, Sigma), (±)-sodium 3-hydroxybutyrate (BHB) (10 mM, Sigma), and decanoic acid (1 mM, Alfa Aesar Pty). Acetone and decanoic acids were prepared as 1000× stocks in DMSO, and BHB was prepared as 100× stock. Stocks were dissolved in artificial CSF to achieve their final concentrations during experiments, and where applicable, experiments included constant levels of DMSO."}, "[2]": {"system": "epileptiform activity (burst discharges) in hippocampal slices induced by low-Mg2+", "test": "In vitro seizure model, low-Mg2+ induced epileptiform activity in hippocampal slices", "assay_type": "cell-based, rat", "conditions": "10 mM; low magnesium", "method": "as §1\nas §2, with “The discharge frequency was then averaged every 5 min during the experiment and normalized to baseline. The compounds applied in this study included: 1% dimethyl sulphoxide (DMSO), acetone (10 mM, Sigma), (±)-sodium 3-hydroxybutyrate (BHB) (10 mM, Sigma), and decanoic acid (1 mM, Alfa Aesar Pty). Acetone and decanoic acids were prepared as 1000× stocks in DMSO, and BHB was prepared as 100× stock. Stocks were dissolved in artificial CSF to achieve their final concentrations during experiments, and where applicable, experiments included constant levels of DMSO.” left out"}, "AMPA receptor GluA2/3": {"molecular_target": "T1, AMPA receptor GluA2/3 (Homo sapiens, UniProt P42262+P42263)", "T1 construct": "expressed in transfected cells; host or cells: Xenopus laevis oocytes injected with cRNA (1:1 mix)", "T1 sequence (P42262 22-883 isoform P42262-2 limits assumed)": "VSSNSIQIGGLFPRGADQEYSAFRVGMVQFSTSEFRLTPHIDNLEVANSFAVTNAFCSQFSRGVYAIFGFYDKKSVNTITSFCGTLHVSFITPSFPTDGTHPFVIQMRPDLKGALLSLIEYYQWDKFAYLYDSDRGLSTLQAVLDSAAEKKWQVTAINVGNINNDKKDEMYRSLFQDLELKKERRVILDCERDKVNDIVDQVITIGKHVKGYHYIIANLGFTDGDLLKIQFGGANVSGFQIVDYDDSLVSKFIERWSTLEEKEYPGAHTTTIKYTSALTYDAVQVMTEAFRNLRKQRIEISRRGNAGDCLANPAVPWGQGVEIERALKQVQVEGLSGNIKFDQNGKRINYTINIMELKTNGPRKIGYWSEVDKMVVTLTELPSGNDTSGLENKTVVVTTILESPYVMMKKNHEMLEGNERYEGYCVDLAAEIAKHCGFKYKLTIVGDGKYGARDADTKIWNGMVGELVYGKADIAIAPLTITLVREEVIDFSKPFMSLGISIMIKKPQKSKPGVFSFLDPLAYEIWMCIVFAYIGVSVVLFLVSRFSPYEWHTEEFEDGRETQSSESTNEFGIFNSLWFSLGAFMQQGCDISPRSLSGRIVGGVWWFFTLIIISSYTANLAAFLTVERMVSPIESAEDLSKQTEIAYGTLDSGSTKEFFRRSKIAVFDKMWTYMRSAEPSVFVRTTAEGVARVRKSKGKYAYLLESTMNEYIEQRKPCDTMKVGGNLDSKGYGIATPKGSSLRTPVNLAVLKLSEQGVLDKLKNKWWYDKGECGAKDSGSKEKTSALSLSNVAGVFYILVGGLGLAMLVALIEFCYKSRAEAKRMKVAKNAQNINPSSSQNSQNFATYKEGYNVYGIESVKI", "T1 sequence (P42263 29-894 isoform P42263-2 limits assumed)": "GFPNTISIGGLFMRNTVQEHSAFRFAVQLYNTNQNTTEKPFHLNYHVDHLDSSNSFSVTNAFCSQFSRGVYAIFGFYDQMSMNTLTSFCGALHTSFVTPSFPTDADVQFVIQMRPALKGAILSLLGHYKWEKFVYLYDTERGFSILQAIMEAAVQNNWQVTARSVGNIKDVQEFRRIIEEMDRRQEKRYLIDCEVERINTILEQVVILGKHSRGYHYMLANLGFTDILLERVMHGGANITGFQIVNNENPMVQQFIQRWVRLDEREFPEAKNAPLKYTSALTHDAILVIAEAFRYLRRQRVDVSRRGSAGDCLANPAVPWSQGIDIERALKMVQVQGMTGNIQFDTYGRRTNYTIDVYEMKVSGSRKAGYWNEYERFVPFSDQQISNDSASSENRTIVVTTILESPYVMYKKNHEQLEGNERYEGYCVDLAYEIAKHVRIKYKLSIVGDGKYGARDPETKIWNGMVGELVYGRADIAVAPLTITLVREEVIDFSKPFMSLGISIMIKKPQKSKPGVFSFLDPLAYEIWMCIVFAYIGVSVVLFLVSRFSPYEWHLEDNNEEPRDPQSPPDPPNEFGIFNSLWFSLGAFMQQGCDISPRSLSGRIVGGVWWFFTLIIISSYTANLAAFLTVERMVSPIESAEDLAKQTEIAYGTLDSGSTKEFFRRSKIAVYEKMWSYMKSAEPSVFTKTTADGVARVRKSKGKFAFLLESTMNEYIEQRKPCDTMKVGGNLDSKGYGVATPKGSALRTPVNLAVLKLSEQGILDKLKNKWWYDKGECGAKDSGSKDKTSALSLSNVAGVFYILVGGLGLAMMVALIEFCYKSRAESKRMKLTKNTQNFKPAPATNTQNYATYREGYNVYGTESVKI", "test": "Two-electrode voltage clamp, AMPA receptor GluA2/3 expressed in Xenopus oocytes", "assay_type": "cell-based", "conditions": "for AMPA receptor currents: compound 1 mM, currents elicited by 100 µM L-glutamate, −50 mV", "method": "The AMPA receptor (flip isoform) cDNAs inserted in a SP6 polymerase expression vector (pSP6T) were a generous gift from Prof. Ralf Schoepfer (NPP, UCL). […] AMPA receptor cRNAs were mixed in a nominal 1:1 ratio and ∼5 ng was injected per oocyte.\n(§3) Xenopus laevis oocytes were purchased from the European Xenopus Resource Centre, University of Portsmouth. Stage V to VI oocytes were mechanically dissected and then subjected to gentle shaking for ∼30–50 min at room temperature with modified Barth’s solution (in mM): 88 NaCl, 1 KCl, 2.4 NaHCO3, 0.82 MgCl2, 0.77 CaCl2, 15 Tris-Cl, adjusted to pH 7.4 with NaOH (Sigma-Aldrich), supplemented with 50 IU/ml penicillin and 50 µg/ml streptomycin (Invitrogen) and 50 µg/ml tetracycline (Sigma-Aldrich) and 1% collagenase (type 1A). Healthy oocytes were manually defolliculated and the injections of cRNA for homomeric subunits alone (GluA1), or heteromeric mixtures of two subunits together (GluA1/GluA2 or GluA2/GluA3) were made using an automated Drummond Nanoinject II injector. The oocytes were then incubated at 17°C in modified Barth’s solution for at least 48 h before use in electrophysiological recordings.\nExperiments were performed at room temperature (∼21–23°C). […] Current and voltage electrodes were filled with 300 mM KCl and made from thin-walled borosilicate glass (GC150TF-7.5, Harvard Apparatus) using a PC-10 electrode puller (Narashige Instruments) and had resistances of 0.5–2 MΩ. […] Compounds were dissolved in distilled water or DMSO and dissolved in bathing solution to achieve their final concentrations during experiments, and were applied under gravity flow during the experiment by using a multi-valve perfusion system (VC3-8C, ALA Scientific Instruments). The bath solutions were perfused at a rate of 10 ml/min. […] Data acquisition was performed using the Windows PC-based program, WinEDR v3.0.6 (John Dempster, University of Strathclyde, UK).\nStatistical analysis was performed using ANOVA with Tukey post hoc test, paired t-test or unpaired t-test."}, "AMPA receptor": {"system": "AMPA receptor", "parameters": "method as in Arai, 2001", "conditions": "50 µM; ref Arai, 2001; cited from earlier work"}, "AMPA receptor GluA1": {"molecular_target": "T2, AMPA receptor GluA1 (Homo sapiens, UniProt P42261)", "T2 construct": "expressed in transfected cells; host or cells: Xenopus laevis oocytes injected with cRNA", "T2 sequence (P42261 19-906 isoform P42261-2 limits assumed)": "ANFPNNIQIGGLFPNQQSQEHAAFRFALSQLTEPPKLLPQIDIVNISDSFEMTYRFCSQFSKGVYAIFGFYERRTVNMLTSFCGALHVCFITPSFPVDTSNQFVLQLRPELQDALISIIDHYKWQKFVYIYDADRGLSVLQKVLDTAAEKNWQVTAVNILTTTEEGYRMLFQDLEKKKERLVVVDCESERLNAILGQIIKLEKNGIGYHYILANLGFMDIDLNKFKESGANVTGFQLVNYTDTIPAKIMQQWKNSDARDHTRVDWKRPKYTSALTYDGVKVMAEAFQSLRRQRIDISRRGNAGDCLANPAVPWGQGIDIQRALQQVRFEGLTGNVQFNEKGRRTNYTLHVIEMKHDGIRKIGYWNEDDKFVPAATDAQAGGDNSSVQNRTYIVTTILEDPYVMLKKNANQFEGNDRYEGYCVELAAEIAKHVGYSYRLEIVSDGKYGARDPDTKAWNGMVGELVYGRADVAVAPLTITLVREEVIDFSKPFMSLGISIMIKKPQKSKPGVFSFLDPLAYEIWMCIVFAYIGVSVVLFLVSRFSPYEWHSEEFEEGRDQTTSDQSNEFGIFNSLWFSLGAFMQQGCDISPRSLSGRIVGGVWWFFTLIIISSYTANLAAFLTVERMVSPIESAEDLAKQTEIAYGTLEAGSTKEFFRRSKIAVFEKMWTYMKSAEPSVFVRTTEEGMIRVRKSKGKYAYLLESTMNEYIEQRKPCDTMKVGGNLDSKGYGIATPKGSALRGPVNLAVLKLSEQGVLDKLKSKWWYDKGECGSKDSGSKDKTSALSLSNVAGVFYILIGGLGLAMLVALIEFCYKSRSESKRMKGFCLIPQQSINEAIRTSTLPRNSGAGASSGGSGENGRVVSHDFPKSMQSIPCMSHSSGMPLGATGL", "test": "Two-electrode voltage clamp, homomeric GluA1 AMPA receptor expressed in Xenopus oocytes", "assay_type": "cell-based", "conditions": "glutamate 100 µM", "method": "The AMPA receptor (flip isoform) cDNAs inserted in a SP6 polymerase expression vector (pSP6T) were a generous gift from Prof. Ralf Schoepfer (NPP, UCL). RNA was transcribed in vitro from MluI linearized transcripts using the SP6 Promega RiboMAX® RNA synthesis kit according to manufacturer’s protocols except for the addition of 0.75 mM capping nucleotide m^7G(5’)ppp(5’)G (Promega) and 1.6 mM GTP. cRNA concentrations and integrity were estimated by the intensity of fluorescence bands in RNA denaturating gels. AMPA receptor cRNAs were mixed in a nominal 1:1 ratio and ∼5 ng was injected per oocyte.\nas §3\nExperiments were performed at room temperature (∼21–23°C). An oocyte was placed in a recording chamber (0.3–0.5 ml volume) and perfused with ND96 solution (96 mM NaCl, 2 mM KCl, 1.8 mM CaCI2, 1 mM MgCl2, 5 mM HEPES, with pH adjusted to 7.5). Current and voltage electrodes were filled with 300 mM KCl and made from thin-walled borosilicate glass (GC150TF-7.5, Harvard Apparatus) using a PC-10 electrode puller (Narashige Instruments) and had resistances of 0.5–2 MΩ. Oocytes were voltage-clamped to a holding potential of −50 mV or −60 mV using a Turbo TEC-03 amplifier (npi electronics). […]"}, "[3]": {"conditions": "humans; ref Rogawski and Hanada, 2013; cited from earlier work"}, "field EPSP": {"system": "field EPSP", "parameters": "method as in Ceolin et al., 2012", "conditions": "at 30–50 nM; ref Ceolin et al., 2012; cited from earlier work"}, "[4]": {"system": "epileptiform activity (burst discharges) in hippocampal slices induced by pentylenetetrazol", "parameters": "method as in Chang et al., 2012, 2013", "conditions": "1 mM; ref Chang et al., 2012, 2013; cited from earlier work"}, "[5]": {"system": "epileptiform activity (burst discharges) in hippocampal slices induced by low-Mg2+", "parameters": "method as in Chang et al., 2012, 2013", "conditions": "1 mM; ref Chang et al., 2012, 2013; cited from earlier work"}}, "data": [{"smiles": "CC(O)CC(=O)O", "note": "(racemic) [β-hydroxybutyrate, (±)-sodium 3-hydroxybutyrate]", "values": [{"measurement": "effect on epileptiform activity", "setting": "[1]; 10 mM", "value": "did not have any effect"}, {"measurement": "effect on epileptiform activity", "setting": "[2]", "value": "did not have any effect"}]}, {"smiles": "CCCCC(C)CCC(=O)O", "note": "(stereo not drawn) [4-methyloctanoic acid]", "values": [{"measurement": "IC50", "setting": "AMPA receptor GluA2/3; glutamate 100 µM, read-out: IC50, inhibition of glutamate-induced AMPA receptor current", "value": "840 ± 40", "unit": "µM"}]}, {"smiles": "CC1=NN=C(c2ccc(N)cc2)c2cc3c(cc2C1)OCO3", "note": "[GYKI 52466, reference compound]", "values": [{"measurement": "effect on epileptiform activity", "setting": "[1]; 50 µM", "value": "completely blocked"}, {"measurement": "decrease in AMPA receptor responses", "setting": "AMPA receptor", "value": "60–70%"}]}, {"smiles": "CC(C)=O", "note": "[acetone]", "values": [{"measurement": "effect on epileptiform activity", "setting": "[1]; 10 mM", "value": "did not have any effect"}, {"measurement": "effect on epileptiform activity", "setting": "[2]", "value": "did not have any effect"}]}, {"smiles": "CCCCCCCC(=O)O", "note": "[octanoic acid, reference compound]", "values": [{"measurement": "effect on homomeric GluA1 currents", "setting": "AMPA receptor GluA1", "value": "no effect"}, {"measurement": "AMPA receptor currents", "setting": "AMPA receptor GluA2/3", "value": "no effect"}]}, {"smiles": "N#Cc1ccccc1-c1cc(-c2ccccn2)cn(-c2ccccc2)c1=O", "note": "[perampanel]", "values": [{"measurement": "free concentrations observed to be efficacious", "setting": "[3]", "value": "30 to 50", "unit": "nM"}, {"measurement": "reduction in field EPSP slope", "setting": "field EPSP", "value": "~20", "unit": "%"}]}, {"smiles": "CCCC(CCC)C(=O)O", "note": "[valproic acid]", "values": [{"measurement": "effect on homomeric GluA1 currents", "setting": "AMPA receptor GluA1", "value": "no effect"}, {"measurement": "effect on seizure activity", "setting": "[4]", "value": "only modifies seizure activity"}, {"measurement": "effect on seizure activity", "setting": "[5]", "value": "only modifies seizure activity"}, {"measurement": "AMPA receptor currents", "setting": "AMPA receptor GluA2/3", "value": "no action"}]}]}
